Source: patent US9926306B2, “Inhibition of MCL-1 and/or BFL-1/A1” (Dana-Farber Cancer Institute, Inc., priority 2012, dated 2018)
“Also recorded” adds a separate entry of the source.

Tests used:
BFL-1/A1ΔC = BFL-1/A1ΔC (Homo sapiens (Human), UniProt Q16548); test: Competitive fluorescence polarization binding assay, BFL-1/A1 (FITC-BID BH3); settings: Table A
Source text: FIG. 19A and FIG. 19B are graphs that show potent targeting of the anti-apoptotic protein BFL-1/A1 by MIM1. […] Thus, the complex between FITC-BID BH3 and BFL-1/A1ΔC was employed in a competitive FP assay to monitor the capacity of MIM1 to target BFL-1/A1ΔC.

MCL-1ΔNΔC = MCL-1ΔNΔC (Homo sapiens (Human), UniProt Q07820); test: Competitive fluorescence polarization binding assay, MCL-1; settings: Table A
Sequence of MCL-1ΔNΔC (Q07820 172-327, stated change not applied): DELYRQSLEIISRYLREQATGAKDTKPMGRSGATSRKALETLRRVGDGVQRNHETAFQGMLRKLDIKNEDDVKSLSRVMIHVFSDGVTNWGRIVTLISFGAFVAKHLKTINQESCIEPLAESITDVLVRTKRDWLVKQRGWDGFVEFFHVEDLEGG
Experimental: Here, we deployed MCL-1 SAHBA as a high fidelity screening tool to determine if its potency and specificity-of-action could be harnessed for small molecule discovery. […] A compilation of 71,296 small molecules was screened for the capacity to displace FITC-MCL-1 SAHBA from recombinant MCL-1ΔNΔC (aa 172-327) (FIG. 4).
Fluorescence polarization assays (FPA) were performed as previously described^38,39. […] Fluorescence polarization was measured at equilibrium and IC50 values calculated by nonlinear regression analysis of competitive binding curves using Prism software (Graphpad).

[1] = tested on: MCL-1-rescued p185+Arf−/−Mcl-1−/− CML cells; test: Cell viability (CellTiter-Glo), MCL-1-dependent leukemia cells; assay type: cell-based, murine; settings: Mus musculus; MCL-1-dependent cells, 24 h
Source text: A challenges in developing and applying molecular antagonists for BCL-2 family anti-apoptotic proteins is the variable expression of multiple homologues. That is, a cancer cell will only be susceptible to a selective anti-apoptotic inhibitor if the cell is especially dependent on that particular survival protein. […] To test MIM1's activity and specificity in cancer cells, we employed murine p185^+Arf^−/−Mcl-1^−/− chronic myelogenous leukemia (CML) cells that are unable to survive unless reconstituted with MCL-1, reflecting a stringent system for assessing MCL-1 dependence.
p185^+Arf^−/− and MCL-1 or BCL-XL-rescued p185^+Arf^−/−Mcl^−/− cells were maintained in RPMI 1640 (ATCC) supplemented with 10% (v/v) FBS, 100 U/mL penicillin, 100 μg/mL streptomycin, 0.1 mM MEM non-essential amino acids and 50 μM β-mercaptoethanol. […] Cell viability was assayed at 24 h by addition of CellTiter-Glo reagent according to the manufacturer's protocol (Promega), and luminescence was measured using a SpectraMax M5 microplate reader (Molecular Devices). Caspase 3/7 activation was assayed at 8 h by addition of Caspase-Glo 3/7 reagent according to manufacturer's protocol (Promega), and luminescence measured using a SpectraMax M5 microplate reader. […]

BCL-XLΔC = BCL-XLΔC (Homo sapiens (Human), UniProt Q07817); test: Competitive fluorescence polarization binding assay, BCL-XL; settings: tracer FITC-BID BH3; read-out: IC50, displacement of FITC-BID BH3 from BCL-XLΔC
Sequence of BCL-XLΔC (Q07817 1-212): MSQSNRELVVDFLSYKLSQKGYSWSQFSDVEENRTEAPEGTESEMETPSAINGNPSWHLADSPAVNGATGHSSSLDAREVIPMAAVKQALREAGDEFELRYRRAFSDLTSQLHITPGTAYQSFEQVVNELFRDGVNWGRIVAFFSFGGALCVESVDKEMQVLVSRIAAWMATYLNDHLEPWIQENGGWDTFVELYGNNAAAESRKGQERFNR

[2] = tested on: wild-type or Bax−/−Bak−/− MEFs; test: Cell viability (CellTiter-Glo), MEFs; assay type: cell-based, mouse; settings: non-malignant fibroblasts, 24 h
Experimental: (§1) p185^+Arf^−/− and MCL-1 or BCL-XL-rescued p185^+Arf^−/−Mcl^−/− cells were maintained in RPMI 1640 (ATCC) supplemented with 10% (v/v) FBS, 100 U/mL penicillin, 100 μg/mL streptomycin, 0.1 mM MEM non-essential amino acids and 50 μM β-mercaptoethanol. Mouse embryonic fibroblasts (MEFs) cells were maintained in DMEM high glucose (Invitrogen) supplemented with 10% (v/v) FBS, 100 U/mL penicillin, 100 μg/mL streptomycin, 2 mM L-glutamine, 50 mM HEPES, 0.1 mM MEM non-essential amino acids and 50 μM β-mercaptoethanol. […] Cell viability was assayed at 24 h by addition of CellTiter-Glo reagent according to the manufacturer's protocol (Promega), and luminescence was measured using a SpectraMax M5 microplate reader (Molecular Devices). Caspase 3/7 activation was assayed at 8 h by addition of Caspase-Glo 3/7 reagent according to manufacturer's protocol (Promega), and luminescence measured using a SpectraMax M5 microplate reader. Viability and caspase assays were performed in duplicate, repeated at least twice with independent cell cultures, and the data normalized to vehicle-treated control wells.

[3] = tested on: parental p185+Arf−/− CML cells; test: Cell viability and CalcuSyn synergy, parental leukemia cells; assay type: cell-based, murine; settings: Mus musculus; parental cells expressing both MCL-1 and BCL-XL; read-out: IC50, cytotoxicity
Experimental: as §1

[4] = tested on: wild-type or Bax−/−Bak−/− MEFs; test: Caspase 3/7 activation (Caspase-Glo), MEFs; assay type: cell-based, mouse; settings: 8 h
Experimental: as §1

Sequence of BFL-1/A1ΔC (Q16548 1-153): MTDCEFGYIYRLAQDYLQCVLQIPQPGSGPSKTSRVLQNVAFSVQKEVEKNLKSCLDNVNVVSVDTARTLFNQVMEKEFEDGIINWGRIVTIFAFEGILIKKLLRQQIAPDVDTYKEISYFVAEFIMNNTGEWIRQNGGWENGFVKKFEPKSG

Row | SMILES | IC50 (BFL-1/A1ΔC) | IC50 (MCL-1ΔNΔC) | also measured
1 | Oc1ccc(/C=N/NC(=S)NC2CCCCC2)c(O)c1O [178-72] | 5100 nM | 16000 nM | –
2 | CCc1cs/c(=N\C2CCCCC2)n1/N=C/c1ccc(O)c(O)c1O [178-82] | 1200 nM | 2100 nM | –
3 | Oc1ccc(/C=N/n2c(C3CC3)cs/c2=N\C2CCCCC2)c(O)c1O [178-83] | 785 nM | 910 nM | –
4 | COC(=O)Cc1cs/c(=N\C2CCCCC2)n1/N=C/c1ccc(O)c(O)c1O [178-97] | 1000 nM | 9500 nM | –
5 | Cc1s/c(=N\C2CCCCC2)n(/N=C/c2ccc(O)c(O)c2O)c1C [183-8] | 712 nM | 1500 nM | –
6 | Cc1cs/c(=N\C2CCCC2)n1/N=C/c1ccc(O)c(O)c1O [183-19] | 631 nM | 3100 nM | –
7 | Cc1cs/c(=N\c2ccccc2)n1/N=C/c1ccc(O)c(O)c1O [183-20] | 264 nM | – | –
8 | Oc1ccc(/C=N/n2c(C3CC3)cs/c2=N\c2ccccc2)c(O)c1O [183-21] | 719 nM | 4300 nM | –
9 | Oc1ccc(/C=N/n2c(C3CC3)cs/c2=N\C2CCCC2)c(O)c1O [183-22] | 601 nM | 2400 nM | –
10 | CCOc1ccccc1/N=c1\scc(C)n1/N=C/c1ccc(O)c(O)c1O [183-24] | 2500 nM | 16000 nM | –
11 | Cc1cs/c(=N\C2CCCCC2)n1/N=C/c1ccc(O)c(O)c1 [183-38] | 282 nM | 12000 nM | –
12 | CC(C)(C)c1cs/c(=N\C2CCCCC2)n1/N=C/c1ccc(O)c(O)c1O [183-44] | 914 nM | 540 nM | –
13 | Oc1ccc(/C=N/N2/C(=N/C3CCCCC3)SCC2(O)C(F)(F)F)c(O)c1O (stereo not drawn) [183-51] | 1200 nM | 2900 nM | –
14 | CC(C)(C)c1cs/c(=N\C2CCCCC2)n1/N=C/c1ccc(O)c(O)c1 [183-65] | 2100 nM | 17700 nM | –
15 | CC(C)(C)Cc1cs/c(=N\C2CCCCC2)n1/N=C/c1ccc(O)c(O)c1O [183-70] | 1500 nM | 1970 nM | –
16 | Oc1ccc(/C=N/n2c(-c3cccs3)cs/c2=N\C2CCCCC2)c(O)c1O [183-76] | 388 nM | 11000 nM | –
17 | Oc1ccc(/C=N/n2c3c(s/c2=N\C2CCCCC2)CCCC3)c(O)c1O [183-81] | 1300 nM | 4500 nM | –
18 | Cc1cs/c(=N\C2CC3CCC2C3)n1/N=C/c1cc(O)c(O)cc1O (stereo not drawn) [183-82] | 169 nM | 1000 nM | –
19 | Cc1cs/c(=N\C2CCCCC2)n1/N=C/c1cc(O)c(O)c(O)c1 [183-84] | 316 nM | 13000 nM | –
20 | COc1cc(/C=N/n2c(C)cs/c2=N\C2CCCCC2)cc(OC)c1OC [183-85] | – | 7600 nM | –
21 | CC(C)(C)c1cs/c(=N\C2CCCCC2)n1/N=C/c1cc(O)c(O)cc1O [183-87] | 42 nM | 151 nM | –
22 | CC(C)(C)c1cs/c(=N\C2CCCCC2)n1/N=C/c1cc(O)c(O)c(O)c1 [183-88] | 759 nM | 1160 nM | –
23 | Cc1s/c(=N\C2CCCCC2)n(/N=C/c2cc(O)c(O)cc2O)c1C [183-89] | 581 nM | 780 nM | –
24 | CCOC(=O)c1s/c(=N\C2CCCCC2)n(/N=C/c2ccc(O)c(O)c2O)c1C [183-91] | 381 nM | 11800 nM | –
25 | CC(C)C(C)/N=C1\SCC(Br)(C2CC2)N1/N=C/c1cc(O)c(O)cc1O (stereo not drawn) [187-19] | – | 891 nM | –
26 | Cc1cs/c(=N\C2CCCCC2)n1/N=C/c1ccc(O)c(O)c1O [MIM1, 4-((E)-(((Z)-2-(cyclohexylimino)-4-methylthiazol-3(2H)-yl)imino)methyl)benzene-1,2,3-triol] | – | – | IC50 [1]: 4200 nM; IC50 (BCL-XLΔC): > 50000 nM; effect on viability / toxicity [2]: little to no toxicity; also recorded: no significant effect; IC50 [3]: 10600 nM; caspase 3/7 activation [4]: no observed caspase 3/7 activation

Now from value to compound, other results behind:

Row | IC50 (BFL-1/A1ΔC) | IC50 (MCL-1ΔNΔC) | SMILES | also measured
27 | 1100 nM | 2700 nM | Cc1cs/c(=N\CC2CCCCC2)n1/N=C/c1ccc(O)c(O)c1O [187-5] | –
28 | 26 nM | 123 nM | Oc1cc(O)c(/C=N/n2c(C3CC3)cs/c2=N\C2CCCCC2)cc1O [187-7] | –
29 | 8400 nM | – | Cc1cs/c(=N\C2CCCCC2)n1/N=C/c1cc(O)c(O)cc1F [187-8] | –
30 | 9100 nM | – | CC(C)(C)c1cs/c(=N\C2CCCCC2)n1/N=C/c1cc(O)c(O)cc1F [187-10] | –
31 | 2100 nM | 1780 nM | Cc1cs/c(=N\C(C)C(C)C)n1/N=C/c1ccc(O)c(O)c1O (stereo not drawn) [187-20] | –
32 | 144 nM | 1410 nM | Cc1cs/c(=N\C2CCCc3ccccc32)n1/N=C/c1cc(O)c(O)cc1O (stereo not drawn) [187-22] | –
33 | 1100 nM | 4360 nM | Cc1cs/c(=N\C2CCCc3ccccc32)n1/N=C/c1ccc(O)c(O)c1O (stereo not drawn) [187-23] | –
34 | 1500 nM | 4300 nM | CC(C)C(C)/N=c1\scc(C(C)(C)C)n1/N=C/c1ccc(O)c(O)c1O (stereo not drawn) [187-27] | –
35 | 2800 nM | – | CCc1s/c(=N\C2CCCCC2)n(/N=C/c2ccc(O)c(O)c2O)c1C(C)(C)C [187-37] | –
36 | 1100 nM | 7300 nM | CC(C)C(C)/N=c1\scc(C2CC2)n1/N=C/c1cc(O)c(O)cc1O (stereo not drawn) [187-39] | –
37 | 117 nM | 587 nM | Cc1s/c(=N\C2CCCCC2)n(/N=C/c2cc(O)c(O)cc2O)c1C1CC1 [187-44] | –
38 | 735 nM | – | Cc1s/c(=N\C2CCN(C(=O)OC(C)(C)C)CC2)n(/N=C/c2ccc(O)c(O)c2O)c1C1CC1 [187-50] | –
39 | 272 nM | 937 nM | Cc1cs/c(=N\C2CC3CCC2C3)n1/N=C/c1cc(O)c(O)cc1O (stereo not drawn) [187-79] | –
40 | 31000 nM | – | Cc1cs/c(=N\C2CCCCC2)n1/N=C/c1c(O)cc(O)cc1O [187-81] | –
41 | 8100 nM | 13300 nM | Cc1cs/c(=N\c2ccccc2)n1/N=C/c1ccc(O)c(O)c1 [187-82] | –
42 | 3000 nM | – | Oc1ccc(/C=N/n2c(C3CC3)cs/c2=N\c2ccccc2)cc1O [187-95] | –
43 | 15000 nM | – | COc1cc(/C=N/n2c(C(C)(C)C)cs/c2=N\C2CCCCC2)c(O)cc1O [190-4] | –
44 | 1700 nM | – | Oc1ccc(/C=N/n2c(-c3cccs3)cs/c2=N\c2ccccc2)c(O)c1O [190-18] | –
45 | 365 nM | – | Oc1ccc(/C=N/n2c(C3CC3)cs/c2=N\c2ccccc2)c(O)c1O [190-20] | –
